The test system of experiment [1] is A549. Kind of experiment: Antiproliferative activity against human A549 cells after 3 days by CCK8 assay. It is filed as functional. Further details: concentration or dose not given beside the values. For orientation: Formazan colour is commonly taken as a measure of viable cells.
Experiment [2] has as its target T1, Catenin beta-1 (Homo sapiens) (UniProt P35222).
T1 sequence (whole entry): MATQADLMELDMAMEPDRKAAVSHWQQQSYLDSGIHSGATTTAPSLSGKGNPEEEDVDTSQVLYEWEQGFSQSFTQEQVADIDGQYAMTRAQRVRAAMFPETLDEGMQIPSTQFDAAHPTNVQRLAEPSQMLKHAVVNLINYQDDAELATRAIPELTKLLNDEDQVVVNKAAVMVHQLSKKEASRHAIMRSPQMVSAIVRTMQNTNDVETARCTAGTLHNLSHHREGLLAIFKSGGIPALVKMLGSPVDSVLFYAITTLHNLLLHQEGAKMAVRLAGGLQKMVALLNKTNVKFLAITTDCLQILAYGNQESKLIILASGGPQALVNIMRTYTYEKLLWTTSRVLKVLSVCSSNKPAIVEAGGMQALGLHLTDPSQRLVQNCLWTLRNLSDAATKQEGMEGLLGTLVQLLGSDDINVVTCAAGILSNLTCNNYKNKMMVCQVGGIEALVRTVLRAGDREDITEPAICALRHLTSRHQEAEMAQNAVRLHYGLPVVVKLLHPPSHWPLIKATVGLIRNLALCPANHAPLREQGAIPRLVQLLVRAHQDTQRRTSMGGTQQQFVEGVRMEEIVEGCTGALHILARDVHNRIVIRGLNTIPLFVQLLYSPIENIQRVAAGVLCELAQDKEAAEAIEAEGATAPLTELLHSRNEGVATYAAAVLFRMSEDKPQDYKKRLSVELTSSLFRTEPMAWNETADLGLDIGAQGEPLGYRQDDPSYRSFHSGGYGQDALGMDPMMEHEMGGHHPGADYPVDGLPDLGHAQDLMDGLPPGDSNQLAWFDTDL
The experiment is described as follows: Inhibition of beta-catenin transcriptional activity in human A549 cells after 24 hrs by luciferase reporter assay. Details: concentration or dose not given beside the values. It is filed as cell-based.

Experiment [3] deals with A549. Kind of experiment: Induction of apoptosis in human A549 cells at 3 uM by annexin V staining-based flow cytometric analysis. It is filed as functional, cell-based. The following applies: TDE = time-dependent effect.
The test system of experiment [4] is A549. The experiment is described as follows: Induction of apoptosis in human A549 cells assessed as dead cells at 3 uM after 1 day by annexin V staining-based flow cytometric analysis (reference value: 0.2%). In kind it is functional. In general terms: A flow cytometer gives signals particle by particle.
The subject of experiment [5] is A549. Kind of experiment: Induction of apoptosis in human A549 cells assessed as late apoptotic cells at 3 uM after 1 day by annexin V staining-based flow cytometric analysis (reference value: 0.5%). It is filed as functional.
Experiment [6] relates to A549. The experiment is described as follows: Induction of apoptosis in human A549 cells assessed as live cells at 3 uM after 1 day by annexin V staining-based flow cytometric analysis (reference value: 98%). In kind it is functional.
Experiment [7] has as its system A549. Kind of experiment: Induction of apoptosis in human A549 cells assessed as early apoptotic cells at 3 uM after 1 day by annexin V staining-based flow cytometric analysis (reference value: 1.3%). It is filed as functional.
Experiment [8] relates to A549. Kind of experiment: Induction of apoptosis in human A549 cells assessed as dead cells at 3 uM after 2 days by annexin V staining-based flow cytometric analysis (reference value: 0.2%). It is filed as functional.
In experiment [9] the test system is A549. Kind of experiment: Induction of apoptosis in human A549 cells assessed as late apoptotic cells at 3 uM after 2 days by annexin V staining-based flow cytometric analysis (reference value: 0.5%). In kind it is functional.
In experiment [10] the test system is A549. The experiment is described as follows: Induction of apoptosis in human A549 cells assessed as live cells at 3 uM after 2 days by annexin V staining-based flow cytometric analysis (reference value: 98%). It is filed as functional.
Experiment [11] concerns A549. The experiment is described as follows: Induction of apoptosis in human A549 cells assessed as early apoptotic cells at 3 uM after 2 days by annexin V staining-based flow cytometric analysis (reference value: 1.3%). It is filed as functional.
In experiment [12] the test system is A549. Kind of experiment: Induction of apoptosis in human A549 cells assessed as dead cells at 3 uM after 3 days by annexin V staining-based flow cytometric analysis (reference value: 0.2%). In kind it is functional.
Experiment [13] relates to A549. The experiment is described as follows: Induction of apoptosis in human A549 cells assessed as late apoptotic cells at 3 uM after 3 days by annexin V staining-based flow cytometric analysis (reference value: 0.5%). In kind it is functional.
The subject of experiment [14] is A549. The experiment is described as follows: Induction of apoptosis in human A549 cells assessed as live cells at 3 uM after 3 days by annexin V staining-based flow cytometric analysis (reference value: 98%). It is filed as functional.
The test system of experiment [15] is A549. The experiment is described as follows: Induction of apoptosis in human A549 cells assessed as early apoptotic cells at 3 uM after 3 days by annexin V staining-based flow cytometric analysis (reference value: 1.3%). In kind it is functional.
For experiment [16], the system named is A549. Kind of experiment: Induction of apoptosis in human A549 cells assessed as up regulation of phosphorylated p53 (S15) level at 3 uM incubated for 12 to 24 hrs by Western blot analysis. The note with it: TDE = time-dependent effect. In kind it is functional, cell-based.
For experiment [17], the system named is A549. Kind of experiment: Induction of apoptosis in human A549 cells assessed as up regulation of phosphorylated p53 (S46) level at 3 uM incubated for 12 to 24 hrs by Western blot analysis. In kind it is functional, cell-based. The following applies: TDE = time-dependent effect. (In general: A western blot detects proteins with antibodies after separation by electrophoresis.)

Experiment [18] concerns A549. Kind of experiment: Induction of apoptosis in human A549 cells assessed as up regulation of phosphorylated p53 (S392) level at 3 uM incubated for 12 to 24 hrs by Western blot analysis. In kind it is functional, cell-based. The following applies: TDE = time-dependent effect.

On to `O=C1CCCc2c1cc1cccn1c2C(=O)c1ccc(F)cc1`, for which the values for the Activity (in the experiment on A549 [1]; in experiment [2]) were 40.94% and 66.2%, respectively.
On to `COc1ccc(C(=O)c2c(N)c(C#N)cc3cccn23)cc1`, for which the Activity entry in the experiment on A549 [1] is “Dose-dependent effect”; in the experiment with A549 [1] (record 2), 0%; in [2] it was 7.03%; with A549 [3] it was “tde”; with A549 [4], 1.15%; in the experiment with A549 [5], 2.3%. Further, the Activity with A549 [6] is given as 88.55%; in the experiment with A549 [7] it was 8%; with A549 [8] it was 2.25%; with A549 [9], 9.7%; with A549 [10], 73.35%; with A549 [11], 14.7%. Besides, the Activity in the experiment on A549 [12] is 0.95%; with A549 [13], 43.65%; in the experiment with A549 [14], 39.8%; with A549 [15], 15.6%; in the experiment with A549 [16] it was “tde”; in the experiment with A549 [17], “tde”. Besides, the Activity entry with A549 [18] was “tde”.
Turning to `N#Cc1cc2cccn2c(C(=O)c2ccc(Cl)cc2)c1N`, the Activity with A549 [1] was 2.87%; in experiment [2], 13.6%.
For `N#Cc1cc2cccn2c(C(=O)c2ccc(OCc3ccccc3)cc2)c1N`, the figures for the Activity (with A549 [1]; in experiment [2]) were 35.05% and 69.1%, respectively.
For `CCOC(=O)c1c(N)c(C#N)cc2cccn12` the same measures were 85.35% and 47%.
For `COc1ccc(C(=O)c2c3c(cc4cccn24)C(=O)CCC3)cc1` the same measures were 51.36% and 67.5%.
In the same order, the values of `CC(=O)c1cc2cccn2c(C(=O)c2ccc(Cl)cc2)c1C` are 79.46% and 52.9%.
Regarding `O=C1CCCc2c1cc1cccn1c2C(=O)c1ccc(Cl)cc1`, the Activity worked out at 47.73% with A549 [1] and 64.5% in experiment [2].
As to `CC(=O)c1cc2cccn2c(C(=O)c2ccccc2)c1C`, the Activity in the experiment on A549 [1] was found to be 92.02%; in experiment [2], 90.3%.
`O=C1CCCc2c1cc1cccn1c2C(=O)c1ccccc1`: the results for the Activity (in the experiment on A549 [1]; in [2]) were 55.44% and 67.3%, respectively.
Consider `CCOC(=O)c1cc2cccn2c(C(=O)c2ccc(OC)cc2)c1N`, for which the Activity in the experiment on A549 [1] came out at 98.46%; in experiment [2] it was 86.4%.
In the same order, the values of `N#Cc1cc2cccn2c(C(=O)c2ccc(F)cc2)c1N` are 1.51% and 22.2%.
Regarding `Cc1c(C(=O)O)cc2cccn2c1C(=O)c1ccccc1`, the Activity in the experiment with A549 [1] stood at 101.93%; in experiment [2], 79.1%.
In the same order, the values of `N#Cc1cc2cccn2c(C(=O)c2ccccc2)c1N` are 13.75% and 26.2%.

The record behind these values is ChEMBL document CHEMBL3745615, “Synthesis, characterization and biological evaluation of anti-cancer indolizine derivatives via inhibiting β-catenin activity and activating p53” (2016).
